{
  "source": "patent US12616698B2",
  "about": "“Methods for reducing liver fat and for treating fatty liver disorders” (Corcept Therapeutics Incorporated, priority 2021, dated 2026)",
  "tested_on": "patients presumed to have NASH",
  "test": "Phase 2a study: NASH biomarkers (pro-C3, ELF score and its components)",
  "type": "in vivo, human",
  "conditions": "for Enhanced Liver Fibrosis (ELF) Score, Change from Baseline mean / Enhanced Liver Fibrosis (ELF) Score, Value mean: unitless",
  "experimental": "Measures of the effectiveness of miricorilant versus placebo in reducing liver fat were assessed by magnetic resonance imaging (MRI). The change from baseline MRI measurements relative to MRI measurements taken following a course of daily miricorilant or placebo administration were assessed by magnetic resonance imaging-proton density fat fraction (MRI-PDFF). Additionally, effects of miricorilant may be assessed by measuring one or more of the following, either by comparing change from baseline after one or more days of miricorilant administration, or by comparing measurements in patients administered miricorilant versus patients administered placebo: change in liver fat assessed by MRI-PDFF; change in AST, ALT, and gamma-glutamyl transferase (GGT); change in propeptide of type III collagen (pro-C3); change in enhanced liver fibrosis (ELF) score and its components (hyaluronic acid, tissue inhibitor of metalloproteinases-1 [TIMP-1], type III procollagen [PIIINP]); change in ACTH, serum cortisol, and serum aldosterone (pharmacodynamic assessments); change in Homeostatic Model Assessment of Insulin Resistance (HOMA-IR); change in absolute body weight; and other measurements. […] For patients with diabetes, change in HbA1c and change in fasting blood glucose may be measured to assess the effects of miricorilant. Change in blood pressure may be measured in patients with high blood pressure to assess the effects of miricorilant. Pharmacokinetic (PK) parameters were estimated from steady state plasma concentrations of miricorilant.\nNASH biomarkers include AST, ALT, GGT, pro-C3, ELF score and its components (hyaluronic acid, TIMP-1, PIIINP). Blood for measuring levels of AST, ALT, and GGT (as part of the chemistry panel) will be collected. Small fragments of collagen, called propeptides, are released during fibrosis. Pro-C3 is the propeptide of type III collagen and detection of pro-C3 is anticipated to reflect the formation of new fibrotic tissue in the liver (Vilar-Gomez and Chalasani 2018). Blood samples for measuring pro-C3 were collected. […] Each of these markers is measured by an immunoassay and an ELF score is generated, from which a level of fibrosis severity can be determined.\n(Units are nanograms per milliliter (ng/mL) except for the enhanced liver fibrosis score (ELF), which is unitless.)",
  "data": [
    {"smiles": "O=c1[nH]c(=O)c(Cc2cccc(C(F)(F)F)c2)c([C@H]2CC[C@H](c3ccccc3)CC2)[nH]1", "note": "[miricorilant, (E)-6-(4-Phenylcyclohexyl)-5-(3-trifluoromethylbenzyl)-1H-pyrimidine-2,4-dione]", "values": [
      {"measurement": "Hyaluronic Acid, Change from Baseline mean", "setting": "600 mg Miricorilant (N = 5)", "result": -17.8, "unit": "ng/mL"},
      {"measurement": "Hyaluronic Acid, Value mean", "setting": "600 mg Miricorilant (N = 5)", "result": 70.7, "unit": "ng/mL"},
      {"measurement": "Propeptide of Type III Collagen (pro-C3), Change from Baseline mean", "setting": "600 mg Miricorilant (N = 5)", "result": 0.5, "unit": "ng/mL"},
      {"measurement": "Propeptide of Type III Collagen (pro-C3), Value mean", "setting": "600 mg Miricorilant (N = 5)", "result": 10.7, "unit": "ng/mL"},
      {"measurement": "Tissue Inhibitor of Metalloproteinases-1 (TIMP-1), Change from Baseline mean", "setting": "600 mg Miricorilant (N = 5)", "result": 3.2, "unit": "ng/mL"},
      {"measurement": "Tissue Inhibitor of Metalloproteinases-1 (TIMP-1), Value mean", "setting": "600 mg Miricorilant (N = 5)", "result": 249.5, "unit": "ng/mL"},
      {"measurement": "Type III Procollagen (PIIINP), Change from Baseline mean", "setting": "600 mg Miricorilant (N = 5)", "result": -0.17, "unit": "ng/mL"},
      {"measurement": "Type III Procollagen (PIIINP), Value mean", "setting": "600 mg Miricorilant (N = 5)", "result": 9.3, "unit": "ng/mL"},
      {"measurement": "Enhanced Liver Fibrosis (ELF) Score, Change from Baseline mean", "setting": "600 mg Miricorilant (N = 5)", "result": "−0.05"},
      {"measurement": "Enhanced Liver Fibrosis (ELF) Score, Value mean", "setting": "600 mg Miricorilant (N = 5)", "result": 9.4},
      {"measurement": "Hyaluronic Acid, Change from Baseline mean", "setting": "900 mg Miricorilant (N = 3)", "result": -50.0, "unit": "ng/mL"},
      {"measurement": "Hyaluronic Acid, Value mean", "setting": "900 mg Miricorilant (N = 3)", "result": 110.9, "unit": "ng/mL"},
      {"measurement": "Propeptide of Type III Collagen (pro-C3), Change from Baseline mean", "setting": "900 mg Miricorilant (N = 3)", "result": -7.9, "unit": "ng/mL"},
      {"measurement": "Propeptide of Type III Collagen (pro-C3), Value mean", "setting": "900 mg Miricorilant (N = 3)", "result": 24.1, "unit": "ng/mL"},
      {"measurement": "Tissue Inhibitor of Metalloproteinases-1 (TIMP-1), Change from Baseline mean", "setting": "900 mg Miricorilant (N = 3)", "result": -79.4, "unit": "ng/mL"},
      {"measurement": "Tissue Inhibitor of Metalloproteinases-1 (TIMP-1), Value mean", "setting": "900 mg Miricorilant (N = 3)", "result": 402.1, "unit": "ng/mL"},
      {"measurement": "Type III Procollagen (PIIINP), Change from Baseline mean", "setting": "900 mg Miricorilant (N = 3)", "result": -5.35, "unit": "ng/mL"},
      {"measurement": "Type III Procollagen (PIIINP), Value mean", "setting": "900 mg Miricorilant (N = 3)", "result": 17.7, "unit": "ng/mL"},
      {"measurement": "Enhanced Liver Fibrosis (ELF) Score, Change from Baseline mean", "setting": "900 mg Miricorilant (N = 3)", "result": "−0.90"},
      {"measurement": "Enhanced Liver Fibrosis (ELF) Score, Value mean", "setting": "900 mg Miricorilant (N = 3)", "result": 10.6}
    ]}
  ]
}
